Laboratory results as given in PMC3646166, “Comparison of Aqueous and 1-Octanol Solubility as well as Liquid–Liquid Distribution of Acyclovir Derivatives and Their Complexes with Hydroxypropyl-β-Cyclodextrin” (Journal of Solution Chemistry, 2013).
In brackets after ≈: the same amount, converted by molar mass. Where two headings read alike, the source gives them in different places.

How the values were obtained:
[1] = Solubility in water or 1-octanol (saturated solutions, UV-Vis); type: physicochemical; details: for solubility: thermodynamic from solid, water
Protocol: The sample of substance examined (10 mg or 80 mg for 6-Me-TACV) was placed in a glass ampoule and double-distilled, deionized water (Millipore, Elix 5 purifier), or pure anhydrous 1-octanol (Sigma 99 %) was added. To attain thermodynamic equilibrium, the solute and the solvent were mixed continuously for a minimum of 4 days at a speed of 25 rpm. After the experiment was completed, the sample was centrifuged at 40,000 rpm for 40 min at 25 ± 0.1 °C, the supernatant liquid was collected, diluted, and its concentration determined with a UV–Vis (Varian Carry IE) spectrophotometer. The experiments were repeated at least three times for each solubility.

[2] = Extraction experiments, 1-octanol-water partition coefficient; type: physicochemical; details: 25 °C, read-out: Partition coefficient 1-octanol–water, P oc/w (converted)
Protocol: The equipment described above was also used for the determination of the 1-octanol-water partition coefficients. […] The partition coefficient was evaluated as:1 Poc/w=Coc/Cw where C oc and C w are the molar concentrations of the solute in the 1-octanol and water phases, respectively. The correctness of the P oc/w value of each compound was verified by checking the mass balance of the starting amount of the substance and the total amount of the substance partitioned between the two phases.

[3] = Solubility in buffered cyclodextrin solutions (excess method of Higuchi and Connors); type: physicochemical; parameters: Stability constant K s of HP-β-CD complex: unit not given here
Protocol: Solubilities of the studied compounds was ensured according to the excess method of Higuchi and Connors. […] An excess amount of compounds 4-9 and 11-12 was added to 1.5 mL of aqueous phosphate buffer (concentration of buffer was equal 0.067 mol·dm^-3) solutions, (pH = 5.5 or 7.0) containing various concentration of HP-β-CD. The cyclodextrin concentration changed in the range of 10^-3 to 2 × 10^-2 mol·dm^-3. The suspensions were shaken in screw-capped plastic vials in a water bath thermostat with the volume of 60 dm^3 (home made apparatus by IChF PAN) at 25 and 37 °C. After 7 days equilibrium was reached and then the suspensions were centrifuged and the absorbance of the studied compounds was measured by UV-Vis spectrophotometry using a Shimadzu UV 2401 PC Spectrometer equipped with a thermostatically controlled cell compartment. During the measurement of absorbance, a buffered-solution of HP-β-CD, of the same concentration as in the studied solution, was always put as the reference. The average values of at least three independent determinations of the absorbance were used for calculation of the concentrations of the particular acyclovir derivatives. […] The main reason for the low solubility of tricyclic acyclovir derivatives with aromatic groups in water is the high hydrophobicity of these substituents. Use of cyclodextrins, which can include aromatic groups into their cavity, may enhance the aqueous solubility of such compounds. For this purpose we used several cyclodextrins and hydroxypropyl-β-cyclodextrin was chosen as being more efficient for complexating the tricyclic acyclovir derivatives. The investigations were performed, for chosen compounds, in various cyclodextrin HP-β-CD, buffered solutions (pH = 5.5 and 7.0) at 25 and 37 °C. […] Values of the correlation parameters a and b for tricyclic acyclovir derivatives complexed by cyclodextrin are presented in Table 3. […] The stability constants of the inclusion complexes between HP-β-CD and acyclovir derivatives have been calculated according to the Higuchi-Connors method using:3 K=b/C0(1-b) where C 0 is the solubility of the sample in solutions without cyclodextrin, obtained by determination of saturated solution concentration of acyclovir derivative solutions. […] These two values can differ, but in our study are very close to each other.

[4] = parameters: method as in earlier work; details: human body ref 1; cited from earlier work
[5] = 25 °C (Table 1), read-out: Solubility in water, C w
[6] = water saturated with 1-octanol, 25 °C, read-out: Solubility in water saturated with 1-octanol, C woc
[7] = 35 °C, read-out: Aqueous solubility, C w
[8] = 45 °C, read-out: Aqueous solubility, C w
[9] = buffered HP-β-CD solutions, pH = 5.5, 25 °C
[10] = buffered HP-β-CD solutions, pH = 5.5, 37 °C
[11] = buffered HP-β-CD solutions, pH = 7.0, 25 °C
[12] = buffered HP-β-CD solutions, pH = 7.0, 37 °C

Row | Structure (SMILES) | solubility [1, 5] [µM] | solubility [1, 6] [µM] | solubility [1, 7] [µM] | solubility [1, 8] [µM] | logP at 2 days [2] | Solubility ratio in 1-octanol and water, C oc/C w ([1]; 25 °C) | Solubility ratio in 1-octanol saturated with water and water saturated with 1-octanol, C ocw/C woc ([1]; 25 °C) | Correlation parameter a (Eq. 2, Cs = a + b·CCD) [3, 9] | Correlation parameter b (Eq. 2, Cs = a + b·CCD) [3, 9] | Correlation parameter a (Eq. 2, Cs = a + b·CCD) [3, 10] | Correlation parameter b (Eq. 2, Cs = a + b·CCD) [3, 10] | Correlation parameter a (Eq. 2, Cs = a + b·CCD) [3, 11] | Correlation parameter b (Eq. 2, Cs = a + b·CCD) [3, 11] | Correlation parameter a (Eq. 2, Cs = a + b·CCD) [3, 12] | Correlation parameter b (Eq. 2, Cs = a + b·CCD) [3, 12] | Stability constant K s of HP-β-CD complex ([3]; pH = 5.5, 25 °C) | Stability constant K s of HP-β-CD complex ([3]; pH = 5.5, 37 °C) | Stability constant K s of HP-β-CD complex ([3]; pH = 7, 25 °C) | Stability constant K s of HP-β-CD complex ([3]; pH = 7, 37 °C) | further results
1 | Nc1nc2c(ncn2COCCO)c(=O)[nH]1 [Compound 1, 9-[(2-hydroxyethoxy)methyl] guanine, reference compound] | 8070 (≈ 1820 µg/mL) | 7440 (≈ 1680 µg/mL) | 16200 (≈ 3650 µg/mL) | 19700 (≈ 4440 µg/mL) | -1.44 | – | – | – | – | – | – | – | – | – | – | – | – | – | – | –
2 | Nc1nc2c(nc(Br)n2COCCO)c(=O)[nH]1 [Compound 2, 8-bromo-9-[(2-hydroxyethoxy)methyl] guanine] | 1030 (≈ 313 µg/mL) | 859 (≈ 261 µg/mL) | 1900 (≈ 578 µg/mL) | 2490 (≈ 757 µg/mL) | -0.264 | 0.430 | 0.802 | – | – | – | – | – | – | – | – | – | – | – | – | –
3 | Nc1nc(O)c2ncn(COC(CO)CO)c2n1 [Compound 3, 9-[(1,3-dihydroxy-2-propoxy)methyl]guanine, reference compound] | 12300 (≈ 3140 µg/mL) | 11000 (≈ 2810 µg/mL) | 21800 (≈ 5560 µg/mL) | 22900 (≈ 5840 µg/mL) | -1.77 | – | – | – | – | – | – | – | – | – | – | – | – | – | – | –
4 | O=c1c2ncn(COCCO)c2nc2[nH]ccn12 [Compound 4, 3,9-dihydro-3-[(2-hydroxyethoxy)methyl]-9-oxo-5H-imidazol[1,2-a]purine] | 3070 (≈ 765 µg/mL) | 2720 (≈ 678 µg/mL) | 5910 (≈ 1470 µg/mL) | 6750 (≈ 1680 µg/mL) | -0.86 | 0.046 | 0.157 | 2.64 × 10^−3 | 1.98 × 10^−2 | 5.15 × 10^−3 | 2.72 × 10^−2 | 2.48 × 10^−3 | 2.05 × 10^−2 | 4.79 × 10^−3 | 2.56 × 10^−2 | 8.0 (±1) dm·mol^−1 | 6.0 (±1) dm·mol^−1 | 8.0 (±1) dm·mol^−1 | 6.0 (±1) dm·mol^−1 | –
5 | CC(C)[C@H](N)C(=O)OCCOCn1cnc2c(=O)[nH]c(N)nc21 [valacyclovir] | – | – | – | – | – | – | – | – | – | – | – | – | – | – | – | – | – | – | – | Absorption relative to application of acyclovir [4]: four times higher

The next lines start with results.

Row | solubility [1, 5] [µM] | solubility [1, 6] [µM] | solubility [1, 7] [µM] | solubility [1, 8] [µM] | logP at 2 days [2] | Solubility ratio in 1-octanol and water, C oc/C w ([1]; 25 °C) | Solubility ratio in 1-octanol saturated with water and water saturated with 1-octanol, C ocw/C woc ([1]; 25 °C) | Correlation parameter a (Eq. 2, Cs = a + b·CCD) [3, 9] | Correlation parameter b (Eq. 2, Cs = a + b·CCD) [3, 9] | Correlation parameter a (Eq. 2, Cs = a + b·CCD) [3, 10] | Correlation parameter b (Eq. 2, Cs = a + b·CCD) [3, 10] | Correlation parameter a (Eq. 2, Cs = a + b·CCD) [3, 11] | Correlation parameter b (Eq. 2, Cs = a + b·CCD) [3, 11] | Correlation parameter a (Eq. 2, Cs = a + b·CCD) [3, 12] | Correlation parameter b (Eq. 2, Cs = a + b·CCD) [3, 12] | Stability constant K s of HP-β-CD complex ([3]; pH = 5.5, 25 °C) | Stability constant K s of HP-β-CD complex ([3]; pH = 5.5, 37 °C) | Stability constant K s of HP-β-CD complex ([3]; pH = 7, 25 °C) | Stability constant K s of HP-β-CD complex ([3]; pH = 7, 37 °C) | Structure (SMILES) | further results
6 | 18700 (≈ 4920 µg/mL) | 13100 (≈ 3450 µg/mL) | 26600 (≈ 7000 µg/mL) | 32400 (≈ 8530 µg/mL) | -0.688 | 0.173 | 0.274 | – | – | – | – | – | – | – | – | – | – | – | – | Cc1cn2c(=O)c3ncn(COCCO)c3nc2[nH]1 [Compound 5] | –
7 | 2110 (≈ 722 µg/mL) | 1050 (≈ 360 µg/mL) | 2360 (≈ 807 µg/mL) | 2590 (≈ 886 µg/mL) | -0.108 | 0.108 | 0.816 | 1.18 × 10^−3 | 2.66 × 10^−2 | 2.35 × 10^−3 | 5.94 × 10^−2 | 1.03 × 10^−3 | 2.57 × 10^−2 | 2.01 × 10^−3 | 3.23 × 10^−2 | 27 (±2) dm·mol^−1 | 26 (±2) dm·mol^−1 | 26 (±2) dm·mol^−1 | 17 (±1) dm·mol^−1 | Cc1cn2c(=O)c3nc(Br)n(COCCO)c3nc2[nH]1 [Compound 6] | –
8 | 3080 (≈ 940 µg/mL) | 3780 (≈ 1150 µg/mL) | 20400 (≈ 6230 µg/mL) | 31900 (≈ 9740 µg/mL) | 0.616 | 5.16 | 2.62 | – | – | – | – | – | – | – | – | – | – | – | – | CC(C)(C)c1cn2c(=O)c3ncn(COCCO)c3nc2[nH]1 [Compound 7] | Type of solubility diagram (solubility versus cyclodextrin concentration) ([3]; buffered HP-β-CD solutions): An type of solubility diagram
9 | 238 (≈ 77.4 µg/mL) | 334 (≈ 109 µg/mL) | 517 (≈ 168 µg/mL) | 728 (≈ 237 µg/mL) | 0.545 | 7.48 | 4.76 | 1.86 × 10^−4 | 2.22 × 10^−2 | 3.27 × 10^−4 | 3.57 × 10^−2 | 2.50 × 10^−4 | 2.60 × 10^−2 | 3.36 × 10^−4 | 3.60 × 10^−2 | 122 (±2) dm·mol^−1 | 113 (±10) | 107 (±8) | 105 (±6) dm·mol^−1 | O=c1c2ncn(COCCO)c2nc2[nH]c(-c3ccccc3)cn12 [Compound 8] | –
10 | 229 (≈ 91.9 µg/mL) | 583 (≈ 234 µg/mL) | 554 (≈ 222 µg/mL) | 658 (≈ 264 µg/mL) | 0.491 | 8.90 | 3.10 | 2.18 × 10^−4 | 2.12 × 10^−2 | 5.03 × 10^−4 | 2.98 × 10^−2 | 2.65 × 10^−4 | 2.84 × 10^−2 | 5.95 × 10^−4 | – | 100 (±8) | 61 (±5) | 110 (±6) dm·mol^−1 | 68 (±4) | O=c1c2ncn(COCCO)c2nc2[nH]c(-c3ccc(-c4ccccc4)cc3)cn12 [Compound 9] | –
11 | 364 (≈ 147 µg/mL) | 412 (≈ 167 µg/mL) | 898 (≈ 363 µg/mL) | 1280 (≈ 517 µg/mL) | 0.549 | 2.14 | 1.65 | – | – | – | – | – | – | – | – | – | – | – | – | O=c1c2ncn(COCCO)c2nc2[nH]c(-c3ccc(Br)cc3)cn12 [Compound 10] | –
12 | 166 (≈ 62.3 µg/mL) | 191 (≈ 71.7 µg/mL) | 256 (≈ 96.1 µg/mL) | 265 (≈ 99.5 µg/mL) | 0.549 | 4.37 | 3.58 | 2.99 × 10^−5 | 0.88 × 10^−2 | 3.37 × 10^−5 | 0.93 × 10^−2 | 3.05 × 10^−5 | 0.94 × 10^−2 | 4.29 × 10^−5 | 1.29 × 10^−2 | 297 (±7) | 279 (±9) | 311 (±9) | 305 (±9) | O=c1c2ncn(COCCO)c2nc2[nH]c(-c3ccc4ccccc4c3)cn12 [Compound 12] | –
